Measured values: US8377434B2, “Cosmetic composition for exfoliating skin keratin” (Amorepacific Corporation, priority 2006, dated 2013)

System: skin
Assay: in vivo and ex vivo studies of N-acetyl glucosamine on skin

## CC(=O)N[C@H]1C(O)O[C@H](CO)[C@@H](O)[C@@H]1O (some centres unmarked) [N-acetyl glucosamine]
  production of hyaluronic acid: promote the production of hyaluronic acid
In vivo and ex vivo studies
  improvement of excessive pigmentation, skin tone and barrier function: effective in improving excessive pigmentation, skin tone and barrier function
